{"source": "patent US20150125863A1", "about": "“CXCL5 AS A MARKER OF HORMONE ESCAPE IN PROSTATE CANCER” (Institut National de la Sante Recherche Medicale (INSERM), priority 2010, published 2015)", "key": {"[1]": {"tested_on": "CXCL5 RNA levels in LNCaP cells", "details": "CDFCS + 10^-8 M Dihydrotestosterone vs CDFCS (FIG. 5B)", "quoted_text": "CXCL5 RNA levels were measured by real-time PCR. CXCL5 levels in the presence of FCS were set to 1. Results represent the mean±SD of 3 independent experiments.\nCWR-R1 and LNCaP cells were maintained in RPMI 1640 with Glutamax (Invitrogen, Carlsbad, USA), completed with 10% Foetal Calf Serum (FCS) and gentamycin. For androgen stimulations, cells were weaned off steroids before any experiment by culturing them in phenol red-free RPMI 1640 supplemented with 10% CDFCS (charcoal dextran-treated FCS) for 4 days.\nTotal RNA was prepared using TriReagent (Euromedex, Souffelweyersheim, France). The amount of RNA was estimated by spectrophotometry at 260 nm. Complementary DNAs (cDNA) were obtained from reverse transcription (RT) of 3 μg of total RNA in 13 μl of water RNase free. 1 μl of random hexanucleotides as primers (pd(N)6, 50 mM) in the presence of 1 μl of dNTPs (250 mM; Gibco BRL) were added to the RNA and incubated 5 minutes at 70° C. After, 5 μl of mix containing reverse transcriptase (1 μl) and reverse transcriptase buffer 5× (4 μl) were added to the RNA solution and incubated 1 h at 42° C. Real-time PCR quantification was then performed using a SYBR Green approach (Light Cycler; Roche) as previously described (Lucas et al. 2003 Biochem Biophys Res Commun 309:1011-1016). For each sample, CXCL5 mRNA levels were normalized with RS9 mRNA levels (reference gene)."}, "[2]": {"tested_on": "CXCL5 RNA levels in CWR-R1 cells", "experiment": "CXCL5 RNA levels by real-time PCR in CWR-R1 cells", "assay_type": "cell-based", "details": "CDFCS + 10^-8 M Dihydrotestosterone vs CDFCS (FIG. 5A)", "excerpt": "(§1) Results represent the mean±SD of 3 independent experiments.\nas §1"}, "[3]": {"tested_on": "CWR-R1 cells", "experiment": "In vitro proliferation of CWR-R1 cells", "assay_type": "cell-based", "details": "CXCL5 1 or 50 ng/ml with 10^-5 M bicalutamide, 5 days (FIG. 6B)", "experimental": "CWR-R1 cells were cultured in whole fetal calf serum (FCS), in the absence or in the presence of […] of bicalutamide. CXCL5 RNA levels were measured by real-time PCR. […] Results represent the mean±SD of 3 independent experiments. B. CXCL5 enhances the proliferation of CWR-R1 cells both in the absence and in the presence of the anti-androgen bicalutamide. CWR-R1 cells were cultured in FCS. Some cells were treated with 10^-5 M bicalutamide. The cells were either treated with Ethanol vehicle (C) or with CXCL5 (1 or 50 ng/ml). Proliferation was quantified 5 days after treatment by counting the cells.\n2.5×10^4 cells per well were seeded in triplicate in 24-well culture plates in complete growth media previously described. Cell numbers were determined every two days for 6 days by counting with a malassez slide or by measuring of luciferase activity. For proliferation in complete fetal calf serum, cells were maintained in […] with RPMI 1640. To test the effects of androgens, cells were maintained in phenol-red free RPMI 1640 medium supplemented with 10% FCS."}, "[4]": {"tested_on": "PC-3 cells", "experiment": "Blocking experiments with shCXCL5, PC-3 cell proliferation", "assay_type": "cell-based", "details": "PC-3 cells transfected with shCXCL5 vector, cells counted on day 4 (FIG. 9C)", "experimental": "(§2) A. PC-3 cells were grown for 4 days and either non treated (Control) or treated with goat serum (diluted 1/20) as isotype control antibody (Isotype) or with 0.5 μg/ml of CXCL5 antibody (CXCL5 Ab). Medium with or without treatment was changed at day 2. Results represent the mean of luciferase activity±SD after 4 days of 3 independent experiments. B, C. PC-3 cells were transfected with Non-Target shRNA Control (shCt) or shCXCL5 vector. 4 days later, the medium was collected and CXCL5 levels were measured by Elisa (B). The number of cells was counted on day 4 (C). A representative experiment is shown here.\n(§3) 10^5 PC-3 cells plated in 6 well plated in 10% FCS with RPMI 1640 were transfected with 4 μg of Non-Target shRNA Control Vector (ShC002, Mission Library, Sigma-Aldrich) or shCXCL5 vector (SHCLND-NM_002994-TRCN0000057934NM_002994.3-304s1c1TRC1, Sequence SEQ ID NO: 6: […] Mission Library, Sigma-Aldrich) using Jet-PEI® protocol in each well. 8 h after transfection medium was changed. CXCL5 secretion was quantified 48 h later in conditioned medium by ELISA (Duoset, DY254, R&D system). Cells were counted 4 days after transfection using malassez slide."}, "[5]": {"tested_on": "CXCL5 expression in PC-3 cells", "experiment": "Blocking experiments with shCXCL5, CXCL5 levels by Elisa in PC-3 cells", "assay_type": "cell-based", "details": "PC-3 cells transfected with shCXCL5 vector, compared to Non-Target shRNA Control Vector, after 4 days, Elisa (FIG. 9B)", "experimental": "as §2, §3"}}}
{"molecule": "C[C@]12CCC(=O)C[C@@H]1CC[C@@H]1[C@@H]2CC[C@]2(C)[C@@H](O)CC[C@@H]12", "note": "[dihydrotestosterone]", "values": [{"measurement": "effect on levels of CXCL5 RNA", "setting": "[1]", "value": "partially reduced"}, {"measurement": "effect on levels of CXCL5 RNA", "setting": "[2]", "value": "partially reduced"}]}
{"molecule": "recombinant CXCL5: recombinant C-X-C motif chemokine 5 added to CWR-R1 cells", "values": [{"measurement": "effect on the inhibition of proliferation by bicalutamide", "setting": "[3]", "value": "partially alleviate"}]}
{"molecule": "shCXCL5: shRNA vector against CXCL5, SEQ ID NO: 6, Mission Library, Sigma-Aldrich (DNA CCGGGATCAGTAATCTGCAAGTGTTCTCGAGAACACTTGCAGATTACTGATCTTTTTG)", "values": [{"measurement": "inhibition of proliferation of PC-3 cells", "setting": "[4]", "value": "more than 10 fold"}, {"measurement": "CXCL5 expression", "setting": "[5]", "value": "strongly reduced"}]}
